{
  "source": "patent EP0319316A2",
  "about": "“Griseolic acid monoesters, their preparation and use” (SANKYO COMPANY LIMITED, priority 1987, dated 1989)",
  "key": {"Balb/3T3 cells": {"system": "Balb/3T3 cells", "conditions": "10 min, 500 µM", "description": "Balb/3T3 cells were incubated in Dulbecco's modified Eagle medium (glucose-rich) containing 100/o v/v bovine fetal serum. […] The sample was then dissolved in a buffer solution prepared by the further addition of 4 mM of calcium chloride to the buffer solution mentioned above. If the sample was difficult to dissolve in water, it was dissolved first in dimethyl sulphoxide (DMSO) and then the resulting solution was diluted with the buffer (the final concentration of DMSO was determined to be 0.1%). The cell suspension was preincubated at 30° C for 5 minutes, and 100 µℓ of this suspension were added to 100 µℓ of the sample solution to initiate enzymatic reaction. After incubation at 30° C for 10 minutes, 20 µℓ of 1 N aqueous hydrochloric acid was added to stop the reaction. The reaction mixture was then centrifuged at 3000 rpm for 3 minutes to obtain 100 µℓ of the supernatant. Cyclic 3',5'-adenosine monophosphate (cAMP) contained in the supernatant was quantitatively analyzed by radioimmunoassay using a Yamasa cAMP radioimmunoassay kit YSI-7701. The CAMP accumulating effect is reported as the ratio between the value measured using a test compound and that measured in the control."}, "IOP": {"system": "IOP", "experiment": "IOP lowering effect, area between IOP-time curves (Experiment 6)", "assay_type": "in vivo, male New Zealand white rabbits", "conditions": "Concentration 2.0 %; 25 µℓ three times every 2 minutes; ratio of areas between IOP lines", "procedure": "In the following Experiments 1 to 6, the test animals used were male New Zealand white rabbits, each weighing about 2.5 kg, raised in a room where the room temperature, relative humidity and lighting time were controlled to be 23° C, 60% and from 07:00 to 19:00, respectively. The animals were chosen from those where no abnormalities could be detected in their eyes by observation with the naked eye. They were given water freely but feed was restricted.\nThe compound under test was dissolved in 100 mM of a sodium phosphate buffer solution (pH 7.2) containing a small amount of a 0.1 N aqueous solution of sodium hydroxide. In the case of timolol maleate, a 0.5% w/v eye lotion (Timoptol 0.5%, Santen Pharm. Co.) was used as such.\nThe cornea of the rabbit was anesthetized by the topical application of one or two drops of 0.4% oxybuprocaine hydrochloride. The IOP was measured two or three times for each eye and the mean value was calculated and is reported as the IOP value. After the IOP of the rabbit eye had been measured, 25 µℓ of the sample solution was applied to center of the cornea of one eye three times every 2 minutes. The other eye was treated with the vehicle alone in a similar way. The IOP of both eyes was then measured.\nIOP values obtained from both eyes were plotted against times after application and the area enclosed by the two IOP lines (with and without the active compound) was calculated. The IOP lowering effect of each sample was expressed as a ratio of the area described above to that of 0.5^0/o timolol."}, "[1]": {"parameters": "species or system Male albino rabbits", "conditions": "rabbit, in vivo"}},
  "data": [
    {"smiles": "CC(=O)Oc1ccc(COC(=O)C23C=C(C(O)C(=O)O)OC2C(O)C(n2cnc4c(N)ncnc42)O3)cc1", "note": "(stereo not drawn) [Example 19(b), 9'-(4-Acetoxybenzyl) griseolate]", "values": [
      {"measurement": "cAMP accumulating effect", "setting": "Balb/3T3 cells", "result": 16},
      {"measurement": "IOP Lowering Effect (Ratio to 0.5% timolol)", "setting": "IOP", "result": 2.35},
      {"measurement": "IP", "setting": "[1]", "result": "5.1 ± 0.5", "unit": "mg/dL"}
    ]}
  ]
}
